Experiments:
[1] = Clearance in rat at 4 mg/kg, iv; format: ADME, organism-based; details: in vivo
[2] = Volume of distribution at steady state in rat at 4 mg/kg, iv; format: ADME, organism-based; details: in vivo, read-out: Vdss
[3] = Dose normalized AUC in rat at 4 mg/kg, iv; format: ADME, organism-based; details: in vivo
[4] = Half life in rat at 4 mg/kg, iv; format: ADME, organism-based; details: in vivo
[5] = Cmax in rat at 10 mg/kg, po; format: ADME, organism-based; set-up: route oral, dose 10 mg/kg; details: in vivo
[6] = Tmax in rat at 10 mg/kg, po; format: ADME, organism-based; details: in vivo
[7] = Oral bioavailability in rat at 10 mg/kg; format: ADME, organism-based; details: in vivo
[8] = Clearance in rat at 2 mg/kg, iv; format: ADME, organism-based; details: in vivo
[9] = Volume of distribution at steady state in rat at 2 mg/kg, iv; format: ADME, organism-based; details: in vivo, read-out: Vdss
[10] = Dose normalized AUC in rat at 2 mg/kg, iv; format: ADME, organism-based; details: in vivo
[11] = Half life in rat at 2 mg/kg, iv; format: ADME, organism-based; details: in vivo
[12] = Cmax in rat at 5 mg/kg, po; format: ADME, organism-based; set-up: route oral, dose 5 mg/kg; details: in vivo
[13] = Tmax in rat at 5 mg/kg, po; format: ADME, organism-based; details: in vivo
[14] = Oral bioavailability in rat at 5 mg/kg; format: ADME, organism-based; details: in vivo
[15] = Clearance in dog at 1 mg/kg, iv; format: ADME, organism-based, Canis lupus familiaris; details: in vivo
[16] = Volume of distribution at steady state in dog at 1 mg/kg, iv; format: ADME, organism-based, Canis lupus familiaris; details: in vivo, read-out: Vdss
[17] = Dose normalized AUC in dog at 1 mg/kg, iv; format: ADME, organism-based, Canis lupus familiaris; details: in vivo
[18] = Half life in dog at 1 mg/kg, iv; format: ADME, organism-based, Canis lupus familiaris; details: in vivo
[19] = Cmax in dog at 2 mg/kg, po; format: ADME, organism-based, Canis lupus familiaris; set-up: route oral, dose 2 mg/kg; details: in vivo
[20] = Tmax in dog at 2 mg/kg, po; format: ADME, organism-based, Canis lupus familiaris; details: in vivo
[21] = Oral bioavailability in dog at 2 mg/kg; format: ADME, organism-based, Canis lupus familiaris; details: in vivo
[22] = biological target: Tyrosine-protein kinase Blk (Homo sapiens, UniProt P51451); assay: Inhibition of human BLK
[23] = biological target: T1, Cytoplasmic tyrosine-protein kinase BMX (Homo sapiens, UniProt P51813); assay: Inhibition of human BMX
T1 sequence (P51813 whole entry): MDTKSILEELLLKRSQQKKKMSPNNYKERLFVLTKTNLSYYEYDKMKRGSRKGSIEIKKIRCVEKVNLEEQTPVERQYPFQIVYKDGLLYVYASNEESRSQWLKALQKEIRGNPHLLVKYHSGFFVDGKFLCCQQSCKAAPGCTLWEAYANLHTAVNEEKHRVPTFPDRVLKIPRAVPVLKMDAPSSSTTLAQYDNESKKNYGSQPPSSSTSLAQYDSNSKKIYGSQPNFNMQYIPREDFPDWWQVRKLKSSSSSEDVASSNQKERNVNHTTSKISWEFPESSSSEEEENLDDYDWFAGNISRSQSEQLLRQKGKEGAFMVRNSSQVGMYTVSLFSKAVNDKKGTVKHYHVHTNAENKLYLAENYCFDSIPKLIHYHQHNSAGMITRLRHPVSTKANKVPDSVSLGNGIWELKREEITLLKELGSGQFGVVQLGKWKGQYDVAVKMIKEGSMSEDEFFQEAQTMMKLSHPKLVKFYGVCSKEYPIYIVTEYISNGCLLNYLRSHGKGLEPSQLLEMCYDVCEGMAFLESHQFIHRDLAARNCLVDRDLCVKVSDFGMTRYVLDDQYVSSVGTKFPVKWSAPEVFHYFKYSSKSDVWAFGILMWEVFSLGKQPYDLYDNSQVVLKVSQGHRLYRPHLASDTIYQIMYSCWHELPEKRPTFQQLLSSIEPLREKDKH

[24] = biological target: Tyrosine-protein kinase CSK (Homo sapiens, UniProt P41240); assay: Inhibition of human CSK
[25] = biological target: Receptor tyrosine-protein kinase erbB-4 (Homo sapiens, UniProt Q15303); assay: Inhibition of human ERBB4
[26] = biological target: Tyrosine-protein kinase Fgr (Homo sapiens, UniProt P09769); assay: Inhibition of human FGR
[27] = biological target: Tyrosine-protein kinase FRK (Homo sapiens, UniProt P42685); assay: Inhibition of human FRK
[28] = biological target: Tyrosine-protein kinase Fyn (Homo sapiens, UniProt P06241); assay: Inhibition of human FYN
[29] = biological target: T2, Tyrosine-protein kinase ITK/TSK (Homo sapiens, UniProt Q08881); assay: Inhibition of human ITK
T2 sequence (Q08881 whole entry): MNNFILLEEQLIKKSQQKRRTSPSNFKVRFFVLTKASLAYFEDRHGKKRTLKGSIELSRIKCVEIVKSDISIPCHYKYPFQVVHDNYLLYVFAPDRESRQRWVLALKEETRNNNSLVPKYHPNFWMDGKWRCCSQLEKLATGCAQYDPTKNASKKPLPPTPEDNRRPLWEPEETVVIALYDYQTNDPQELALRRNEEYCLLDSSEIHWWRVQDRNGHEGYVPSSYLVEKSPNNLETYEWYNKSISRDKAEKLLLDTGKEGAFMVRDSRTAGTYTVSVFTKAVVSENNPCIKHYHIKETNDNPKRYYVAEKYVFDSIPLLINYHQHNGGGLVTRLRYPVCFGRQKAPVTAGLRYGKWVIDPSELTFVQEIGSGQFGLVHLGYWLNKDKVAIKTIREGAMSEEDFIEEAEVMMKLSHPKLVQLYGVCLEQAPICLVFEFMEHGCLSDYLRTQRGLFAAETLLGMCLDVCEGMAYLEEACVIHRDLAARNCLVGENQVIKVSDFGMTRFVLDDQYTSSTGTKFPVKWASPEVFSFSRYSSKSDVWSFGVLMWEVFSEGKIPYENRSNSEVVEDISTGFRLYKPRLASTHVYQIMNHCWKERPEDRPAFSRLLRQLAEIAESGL

[30] = biological target: Tyrosine-protein kinase Lck (Homo sapiens, UniProt P06239); assay: Inhibition of human LCK
[31] = biological target: Tyrosine-protein kinase Lyn (Homo sapiens, UniProt P07948); assay: Inhibition of human LYNB
[32] = biological target: Protein-tyrosine kinase 6 (Homo sapiens, UniProt Q13882); assay: Inhibition of human PTK6
[33] = biological target: Proto-oncogene tyrosine-protein kinase Src (Homo sapiens, UniProt P12931); assay: Inhibition of human SRC
[34] = biological target: Tyrosine-protein kinase Srms (Homo sapiens, UniProt Q9H3Y6); assay: Inhibition of human SRMS
[35] = biological target: T3, Tyrosine-protein kinase Tec (Homo sapiens, UniProt P42680); assay: Inhibition of human TEC
T3 sequence (P42680 whole entry): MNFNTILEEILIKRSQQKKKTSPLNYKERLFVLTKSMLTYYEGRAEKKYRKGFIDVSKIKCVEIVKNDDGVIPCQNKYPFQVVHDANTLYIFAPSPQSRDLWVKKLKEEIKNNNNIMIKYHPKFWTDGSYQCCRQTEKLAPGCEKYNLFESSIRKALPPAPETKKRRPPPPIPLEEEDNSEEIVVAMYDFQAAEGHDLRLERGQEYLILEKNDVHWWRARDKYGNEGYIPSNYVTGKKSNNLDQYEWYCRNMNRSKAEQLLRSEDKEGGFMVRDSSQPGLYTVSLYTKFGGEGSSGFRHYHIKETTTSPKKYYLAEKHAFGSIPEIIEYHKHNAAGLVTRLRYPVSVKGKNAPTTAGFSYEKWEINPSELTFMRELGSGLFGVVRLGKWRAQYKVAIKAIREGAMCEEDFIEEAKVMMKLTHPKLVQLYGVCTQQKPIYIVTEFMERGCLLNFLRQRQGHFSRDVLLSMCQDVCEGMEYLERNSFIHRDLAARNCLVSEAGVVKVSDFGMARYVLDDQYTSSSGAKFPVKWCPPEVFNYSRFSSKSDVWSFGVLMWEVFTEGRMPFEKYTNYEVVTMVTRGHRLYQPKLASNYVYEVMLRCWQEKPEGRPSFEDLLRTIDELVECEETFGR

[36] = biological target: T4, Tyrosine-protein kinase TXK (Homo sapiens, UniProt P42681); assay: Inhibition of human TXK
T4 sequence (P42681 whole entry): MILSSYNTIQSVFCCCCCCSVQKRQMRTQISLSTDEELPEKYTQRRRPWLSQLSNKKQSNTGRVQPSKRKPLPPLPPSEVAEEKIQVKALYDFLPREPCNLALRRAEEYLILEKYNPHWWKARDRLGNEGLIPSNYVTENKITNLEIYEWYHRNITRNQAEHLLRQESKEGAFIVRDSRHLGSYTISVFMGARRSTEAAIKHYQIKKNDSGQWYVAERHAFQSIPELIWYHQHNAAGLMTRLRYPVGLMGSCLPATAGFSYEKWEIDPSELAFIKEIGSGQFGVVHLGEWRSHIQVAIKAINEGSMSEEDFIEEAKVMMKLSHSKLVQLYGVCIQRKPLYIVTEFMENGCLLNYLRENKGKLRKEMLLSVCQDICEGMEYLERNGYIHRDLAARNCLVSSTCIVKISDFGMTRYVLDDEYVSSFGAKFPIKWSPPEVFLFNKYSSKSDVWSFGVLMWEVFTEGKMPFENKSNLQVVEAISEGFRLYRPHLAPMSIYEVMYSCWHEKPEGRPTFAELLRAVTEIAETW

[37] = biological target: Tyrosine-protein kinase Yes (Homo sapiens, UniProt P07947); assay: Inhibition of human YES1
Tyrosine-protein kinase Yes, sequence (P07947 whole entry): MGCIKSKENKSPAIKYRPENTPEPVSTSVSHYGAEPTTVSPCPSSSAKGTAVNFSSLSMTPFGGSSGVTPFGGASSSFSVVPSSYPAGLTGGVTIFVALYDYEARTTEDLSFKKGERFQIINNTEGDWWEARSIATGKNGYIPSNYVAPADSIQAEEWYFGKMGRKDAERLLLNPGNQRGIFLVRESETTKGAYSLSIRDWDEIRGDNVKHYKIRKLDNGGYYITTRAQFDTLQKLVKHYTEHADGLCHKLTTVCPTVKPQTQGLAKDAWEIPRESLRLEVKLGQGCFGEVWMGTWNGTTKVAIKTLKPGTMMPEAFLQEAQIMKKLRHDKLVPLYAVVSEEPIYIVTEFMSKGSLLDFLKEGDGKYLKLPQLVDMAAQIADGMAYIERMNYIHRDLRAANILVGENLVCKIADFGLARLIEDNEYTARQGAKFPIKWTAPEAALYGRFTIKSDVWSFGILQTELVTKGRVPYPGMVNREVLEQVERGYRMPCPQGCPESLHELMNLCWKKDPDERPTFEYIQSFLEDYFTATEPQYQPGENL

Protein-tyrosine kinase 6, sequence (Q13882 whole entry): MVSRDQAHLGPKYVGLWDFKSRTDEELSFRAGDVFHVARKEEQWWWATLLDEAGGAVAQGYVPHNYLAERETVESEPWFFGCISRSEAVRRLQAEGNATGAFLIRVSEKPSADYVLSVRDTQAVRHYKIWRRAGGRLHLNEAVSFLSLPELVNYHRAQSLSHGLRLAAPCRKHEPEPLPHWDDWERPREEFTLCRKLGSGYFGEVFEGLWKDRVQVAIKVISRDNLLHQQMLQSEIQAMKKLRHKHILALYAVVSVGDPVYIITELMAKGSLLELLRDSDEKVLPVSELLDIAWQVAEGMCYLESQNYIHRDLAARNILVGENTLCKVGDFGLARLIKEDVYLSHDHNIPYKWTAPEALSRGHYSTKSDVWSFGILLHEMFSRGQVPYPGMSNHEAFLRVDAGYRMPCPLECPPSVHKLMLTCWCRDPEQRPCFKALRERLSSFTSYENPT
Tyrosine-protein kinase Lck, sequence (P06239 whole entry): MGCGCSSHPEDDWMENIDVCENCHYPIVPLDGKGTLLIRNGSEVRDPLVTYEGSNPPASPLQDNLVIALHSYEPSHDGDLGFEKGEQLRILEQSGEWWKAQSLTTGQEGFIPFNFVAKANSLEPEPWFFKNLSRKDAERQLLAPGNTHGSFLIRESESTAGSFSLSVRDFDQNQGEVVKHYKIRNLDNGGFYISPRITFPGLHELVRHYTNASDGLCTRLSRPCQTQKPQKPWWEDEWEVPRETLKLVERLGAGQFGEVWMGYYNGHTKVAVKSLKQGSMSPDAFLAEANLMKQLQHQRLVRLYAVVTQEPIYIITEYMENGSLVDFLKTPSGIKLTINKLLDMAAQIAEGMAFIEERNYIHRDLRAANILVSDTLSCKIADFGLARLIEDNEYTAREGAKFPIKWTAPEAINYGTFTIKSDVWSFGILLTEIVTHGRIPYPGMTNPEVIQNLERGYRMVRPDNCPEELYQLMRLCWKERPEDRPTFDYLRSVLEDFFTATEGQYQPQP
Tyrosine-protein kinase Fyn, sequence (P06241 whole entry): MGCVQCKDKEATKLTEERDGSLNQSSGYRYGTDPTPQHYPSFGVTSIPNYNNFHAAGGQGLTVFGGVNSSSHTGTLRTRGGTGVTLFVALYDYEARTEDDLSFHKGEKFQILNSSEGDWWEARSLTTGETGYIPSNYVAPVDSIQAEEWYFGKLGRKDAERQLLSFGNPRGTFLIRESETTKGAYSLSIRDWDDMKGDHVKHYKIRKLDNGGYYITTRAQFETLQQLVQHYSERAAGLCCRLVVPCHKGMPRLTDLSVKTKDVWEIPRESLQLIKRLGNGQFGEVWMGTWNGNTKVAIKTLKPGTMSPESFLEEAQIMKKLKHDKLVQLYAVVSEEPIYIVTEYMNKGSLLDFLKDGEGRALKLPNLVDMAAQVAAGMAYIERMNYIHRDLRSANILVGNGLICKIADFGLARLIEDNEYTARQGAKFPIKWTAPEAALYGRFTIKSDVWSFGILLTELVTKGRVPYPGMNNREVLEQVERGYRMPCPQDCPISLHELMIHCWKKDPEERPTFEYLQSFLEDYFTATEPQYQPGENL
Tyrosine-protein kinase Srms, sequence (Q9H3Y6 whole entry): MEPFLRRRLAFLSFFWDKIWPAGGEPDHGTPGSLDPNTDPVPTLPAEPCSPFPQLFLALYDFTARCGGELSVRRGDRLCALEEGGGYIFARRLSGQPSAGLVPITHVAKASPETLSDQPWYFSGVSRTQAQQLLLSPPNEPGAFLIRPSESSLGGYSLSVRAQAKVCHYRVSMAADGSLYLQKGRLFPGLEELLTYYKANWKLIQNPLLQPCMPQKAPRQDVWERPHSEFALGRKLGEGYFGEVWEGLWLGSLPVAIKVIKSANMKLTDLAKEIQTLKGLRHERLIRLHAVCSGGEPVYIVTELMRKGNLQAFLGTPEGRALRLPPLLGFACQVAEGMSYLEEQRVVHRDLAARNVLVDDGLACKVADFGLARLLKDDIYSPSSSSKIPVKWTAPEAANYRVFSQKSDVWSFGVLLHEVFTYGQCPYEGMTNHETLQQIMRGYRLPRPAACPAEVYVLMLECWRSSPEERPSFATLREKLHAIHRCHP
Tyrosine-protein kinase FRK, sequence (P42685 whole entry): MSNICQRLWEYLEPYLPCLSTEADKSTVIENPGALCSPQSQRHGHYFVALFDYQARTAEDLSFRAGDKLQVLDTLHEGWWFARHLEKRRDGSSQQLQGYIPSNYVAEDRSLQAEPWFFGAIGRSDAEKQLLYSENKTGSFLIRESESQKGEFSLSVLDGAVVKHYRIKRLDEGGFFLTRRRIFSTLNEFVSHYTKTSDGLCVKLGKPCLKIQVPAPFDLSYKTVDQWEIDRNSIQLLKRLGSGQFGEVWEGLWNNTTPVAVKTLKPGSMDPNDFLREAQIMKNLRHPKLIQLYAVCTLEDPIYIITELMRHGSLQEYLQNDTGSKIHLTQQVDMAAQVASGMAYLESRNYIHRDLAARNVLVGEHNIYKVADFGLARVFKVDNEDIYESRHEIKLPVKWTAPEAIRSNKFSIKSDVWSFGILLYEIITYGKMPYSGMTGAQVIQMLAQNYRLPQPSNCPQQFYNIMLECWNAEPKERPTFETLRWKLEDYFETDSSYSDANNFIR
Tyrosine-protein kinase Blk, sequence (P51451 whole entry): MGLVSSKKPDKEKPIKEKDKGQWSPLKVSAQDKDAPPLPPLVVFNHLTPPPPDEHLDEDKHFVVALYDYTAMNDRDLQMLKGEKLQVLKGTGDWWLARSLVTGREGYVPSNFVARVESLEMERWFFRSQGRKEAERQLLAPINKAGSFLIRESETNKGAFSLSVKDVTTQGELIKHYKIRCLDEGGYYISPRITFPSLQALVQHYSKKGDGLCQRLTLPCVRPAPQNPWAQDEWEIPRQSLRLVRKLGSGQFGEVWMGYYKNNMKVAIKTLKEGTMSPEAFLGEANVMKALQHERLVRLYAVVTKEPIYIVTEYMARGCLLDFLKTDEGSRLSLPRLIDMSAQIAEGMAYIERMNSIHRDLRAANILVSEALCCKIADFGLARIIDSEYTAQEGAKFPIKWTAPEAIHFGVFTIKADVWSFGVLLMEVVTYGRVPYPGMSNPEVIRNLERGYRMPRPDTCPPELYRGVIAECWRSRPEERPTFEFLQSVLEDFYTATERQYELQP
Tyrosine-protein kinase Lyn, sequence (P07948 whole entry): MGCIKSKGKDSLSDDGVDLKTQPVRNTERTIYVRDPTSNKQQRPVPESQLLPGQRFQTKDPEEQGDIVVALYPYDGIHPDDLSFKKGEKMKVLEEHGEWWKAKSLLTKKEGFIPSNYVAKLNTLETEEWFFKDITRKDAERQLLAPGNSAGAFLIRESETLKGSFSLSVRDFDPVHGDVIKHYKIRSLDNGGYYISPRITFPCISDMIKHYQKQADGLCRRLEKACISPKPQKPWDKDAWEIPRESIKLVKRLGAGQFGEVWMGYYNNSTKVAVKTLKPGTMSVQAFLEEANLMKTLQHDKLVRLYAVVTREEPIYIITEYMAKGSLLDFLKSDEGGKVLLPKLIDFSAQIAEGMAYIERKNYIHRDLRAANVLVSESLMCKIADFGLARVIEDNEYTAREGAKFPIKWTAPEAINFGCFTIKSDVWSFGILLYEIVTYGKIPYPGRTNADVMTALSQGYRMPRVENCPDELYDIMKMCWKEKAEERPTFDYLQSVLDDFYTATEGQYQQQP
Proto-oncogene tyrosine-protein kinase Src, sequence (P12931 2-536 limits assumed): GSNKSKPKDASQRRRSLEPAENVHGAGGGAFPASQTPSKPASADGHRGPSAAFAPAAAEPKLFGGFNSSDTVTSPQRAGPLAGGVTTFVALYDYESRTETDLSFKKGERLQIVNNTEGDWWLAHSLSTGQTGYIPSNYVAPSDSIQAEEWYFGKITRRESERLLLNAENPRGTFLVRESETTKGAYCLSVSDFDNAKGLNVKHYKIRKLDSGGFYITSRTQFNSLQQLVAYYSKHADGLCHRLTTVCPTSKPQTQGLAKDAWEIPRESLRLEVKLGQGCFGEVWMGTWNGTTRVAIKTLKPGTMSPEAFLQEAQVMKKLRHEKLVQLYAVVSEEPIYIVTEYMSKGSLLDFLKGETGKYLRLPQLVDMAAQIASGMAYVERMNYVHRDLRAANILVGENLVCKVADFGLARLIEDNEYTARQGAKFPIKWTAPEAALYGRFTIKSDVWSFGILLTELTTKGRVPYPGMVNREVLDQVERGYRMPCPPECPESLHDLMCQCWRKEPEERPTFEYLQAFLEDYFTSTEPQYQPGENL

clearance [8]	Vd [9]	AUC/dose [10]	half-life [11]	Cmax [12]	Tmax [13]	bioavailability [14]	clearance [15]	Vd [16]	AUC/dose [17]	half-life [18]	Cmax [19]	Tmax [20]	bioavailability [21]	SMILES	also measured
–	–	–	–	–	–	–	–	–	–	–	–	–	–	CC1(C(=O)N2CCC[C@@H](c3nc(-c4ccc(C(=O)Nc5cc(C(F)(F)F)ccn5)cc4)c4c(N)nccn34)C2)COC1	clearance [1]: 6.3 mL/min/kg; Vd [2]: 0.59 L/kg; AUC/dose [3]: 5.1 µM·h; half-life [4]: 1.2 h; Cmax [5]: 4800 nM; Tmax [6]: 2.2 h; bioavailability [7]: 84%
18 mL/min/kg	2.6 L/kg	1.6 µM·h	1.8 h	400 nM	1 h	22%	1.5 mL/min/kg	0.65 L/kg	20 µM·h	6.5 h	3900 nM	2 h	82%	C[C@H]1CC[C@@H](c2nc(-c3ccc(C(=O)Nc4cc(C(F)(F)F)ccn4)cc3F)c3c(N)nccn23)CN1C(=O)C1CC1	–
24 mL/min/kg	1.7 L/kg	1.1 µM·h	1.4 h	1000 nM	0.5 h	77%	11 mL/min/kg	2 L/kg	3 µM·h	4.1 h	780 nM	1 h	60%	CC1(C(=O)N2CCC[C@@H](c3nc(-c4ccc(C(=O)Nc5cc(C(F)(F)F)ccn5)cc4F)c4c(N)nccn34)C2)COC1	IC50 [22]: 42 nM; IC50 [23]: 20 nM; IC50 [24]: 253 nM; IC50 [25]: 81 nM; IC50 [26]: 55 nM; IC50 [27]: 187 nM; IC50 [28]: 322 nM; IC50 [29]: 921 nM; IC50 [30]: 22 nM; IC50 [31]: 184 nM; IC50 [32]: 63 nM; IC50 [33]: 116 nM; IC50 [34]: 24 nM; IC50 [35]: 69 nM; IC50 [36]: 32 nM; IC50 [37]: 43 nM
